Experimental data as given in US20130338130A1 (priority 2009, published 2013).
Read-outs that look alike come from different tables or passages of the source.

Tests used:
[1] = tested on: ATCC strain 43300 Staphylococcus aureus; assay: MRSA survival in MSM and 6 μg/ml oxacillin or methicillin, 24, 48, 120 hours (Example 4)
Description: The growth periods tested were 24 hours, 48 hours and 5 days.
USP<51> Antimicrobial Effectiveness protocol was used as the template experimental paradigm. […] All concentrations were plated out to the 10^−7 dilutions to ascertain cfu/ml.
Material was calculated on a 10 ml volume. Sterile oxacillin or methicillin was added to each experimental condition daily at 300 μl from a 30 mg/10 ml concentration giving it an initial final concentration of 6 μg/ml.
All tubes were inoculated with a dilution of MRSA giving a final level of colony forming units of 2.13×10^6/ml (Log=6.3). The tubes were incubated at 25° C. and mixed periodically. Plating was done at 24 hours, 48 hours and 5 days. Each condition was plated by diluting 1 ml of growth material into 9 ml of MLB diluent broth. This mixture was serial diluted down to 10^−7, and 1 ml placed in a sterile petri dish at each dilution point. 20 mls of TSA was added to each dilution, swirled and allowed to solidify. All dilutions were placed in a 35° C. incubator for 24 hours. Bacterial colonies on each plate were counted and colony counts changed into log format. A positive and negative control was ascertained.

[2] = tested on: ATCC strain 43300 Staphylococcus aureus; conditions: 24 hours
Description: All concentrations were plated out to the 10^−7 dilutions to ascertain cfu/ml.
ATCC strain 43300 Staphylococcus aureus was streaked out for isolations and 25 clones were picked and diluted to a McFarland standard of one. The estimated value was then taken to inoculate tubes containing growth media and 12, 30 or 60 μg/ml methicillin or oxacillin with around 10^−7 cfu/tube.
Material was calculated on a 10 ml volume. Sterile oxacillin or methicillin was added to each experimental condition to a final concentration of 12, 30 or 60 μg/ml antibiotic.
All tubes were then inoculated with a dilution of the selected ATCC strain 43300 Staphylococcus aureus clone giving a final level of colony forming units of 9.4×10^7/ml (log=7.97). The tubes were incubated at 25° C. and mixed periodically. […] Plating was done at 24 hours. Each condition was plated by diluting 1 ml of growth material into 9 ml of MLB diluent broth. This mixture was serial diluted down to 10^−7, and 1 ml placed in a sterile petri dish at each dilution point. 20 mls of TSA was added to each dilution, swirled and allowed to solidify. All dilutions were placed in a 35° C. incubator for 24 hours. Bacterial colonies on each plate were counted and colony counts changed into log format. A positive and negative control was ascertained.

[3] = 6 μg/ml methicillin + MSM (initial % in label), 48 hours, listed as 5% MSM
[4] = 6 μg/ml methicillin + MSM (initial % in label), 48 hours, listed as 16% MSM
[5] = 6 μg/ml oxacillin + MSM (initial % in label), 48 hours, listed as 8% MSM
[6] = 6 μg/ml oxacillin + MSM (initial % in label), 48 hours, listed as 16% MSM

Q: CS(C)(=O)=O [MSM, Methylsulfonylmethane] was tested. Which “survival (Log cfu/ml)” value ([1]; 6 μg/ml methicillin + MSM (initial % in label), 48 Hours, listed as 8% MSM) did it give?
A: 3.60 Log cfu/ml

Q: What about the “survival (Log cfu/ml)” value ([1]; 6 μg/ml methicillin + MSM (initial % in label), 48 Hours, listed as 10% MSM) of the same compound?
A: 3.70 Log cfu/ml

Q: And the “survival (Log cfu/ml)” value ([1]; 6 μg/ml methicillin + MSM (initial % in label), 48 Hours, listed as 12% MSM)?
A: 3.70 Log cfu/ml

Q: What about the “survival (Log cfu/ml)” value ([1]; 6 μg/ml methicillin + MSM (initial % in label), 48 Hours, listed as 13% MSM) of the same compound?
A: 3.90 Log cfu/ml

Q: And the “survival (Log cfu/ml)” value ([1]; 6 μg/ml methicillin + MSM (initial % in label), 48 Hours, listed as 14% MSM)?
A: 3.98 Log cfu/ml

Q: What about the “survival (Log cfu/ml)” value ([1]; 6 μg/ml methicillin + MSM (initial % in label), 48 Hours, listed as 15% MSM) of the same compound?
A: 4.00 Log cfu/ml

Q: And the “survival (Log cfu/ml)” value ([1]; 6 μg/ml methicillin + MSM (initial % in label), 24 hours, 3.5% MSM and antibiotic added daily, inoculum Log=6.3)?
A: 4.30 Log cfu/ml

Q: What about the “survival (Log cfu/ml)” value ([1]; 6 μg/ml methicillin + MSM (initial % in label), 24 hours, 3.5% MSM and antibiotic added daily, inoculum Log=6.3, listed as 8% MSM) of the same compound?
A: 4.50 Log cfu/ml

Q: And the “survival (Log cfu/ml)” value ([1]; 6 μg/ml methicillin + MSM (initial % in label), 24 hours, 3.5% MSM and antibiotic added daily, inoculum Log=6.3, listed as 10% MSM)?
A: 4.40 Log cfu/ml

Q: What about the “survival (Log cfu/ml)” value ([1]; 6 μg/ml methicillin + MSM (initial % in label), 24 hours, 3.5% MSM and antibiotic added daily, inoculum Log=6.3, listed as 12% MSM) of the same compound?
A: 4.60 Log cfu/ml

Q: What about the “survival (Log cfu/ml)” value ([1]; 6 μg/ml methicillin + MSM (initial % in label), 24 hours, 3.5% MSM and antibiotic added daily, inoculum Log=6.3, listed as 13% MSM) of the same compound?
A: 4.90 Log cfu/ml

Q: What about the “survival (Log cfu/ml)” value ([1]; 6 μg/ml methicillin + MSM (initial % in label), 24 hours, 3.5% MSM and antibiotic added daily, inoculum Log=6.3, listed as 14% MSM) of the same compound?
A: 4.90 Log cfu/ml

Q: And the “survival (Log cfu/ml)” value ([1]; 6 μg/ml methicillin + MSM (initial % in label), 24 hours, 3.5% MSM and antibiotic added daily, inoculum Log=6.3, listed as 15% MSM)?
A: 5.00 Log cfu/ml

Q: And the “survival (Log cfu/ml)” value ([1]; 6 μg/ml methicillin + MSM (initial % in label), 24 hours, 3.5% MSM and antibiotic added daily, inoculum Log=6.3, listed as 16% MSM)?
A: 5.00 Log cfu/ml

Q: What about the “average log reduction in cfu/ml” value [1, 3] of the same compound?
A: 2.7 log

Q: And the “survival (Log cfu/ml)” value [1, 3]?
A: 3.60 Log cfu/ml

Q: What about the “average log reduction in cfu/ml” value [1, 4] of the same compound?
A: 2.1 log

Q: What about the “survival (Log cfu/ml)” value [1, 4] of the same compound?
A: 4.17 Log cfu/ml

Q: And the “survival (Log cfu/ml)” value ([1]; 6 μg/ml methicillin + MSM (initial % in label), 120 hours, listed as 5% MSM)?
A: TNTC

Q: What about the “survival (Log cfu/ml)” value ([1]; 6 μg/ml methicillin + MSM (initial % in label), 120 hours, listed as 8% MSM) of the same compound?
A: TNTC

Q: And the “survival (Log cfu/ml)” value ([1]; 6 μg/ml methicillin + MSM (initial % in label), 120 hours, listed as 10% MSM)?
A: TNTC

Q: What about the “survival (Log cfu/ml)” value ([1]; 6 μg/ml methicillin + MSM (initial % in label), 120 hours, listed as 12% MSM) of the same compound?
A: 4.20 Log cfu/ml

Q: What about the “survival (Log cfu/ml)” value ([1]; 6 μg/ml methicillin + MSM (initial % in label), 120 hours, listed as 13% MSM) of the same compound?
A: 2.80 Log cfu/ml

Q: What about the “survival (Log cfu/ml)” value ([1]; 6 μg/ml methicillin + MSM (initial % in label), 120 hours, listed as 14% MSM) of the same compound?
A: 2.90 Log cfu/ml

Q: What about the “survival (Log cfu/ml)” value ([1]; 6 μg/ml methicillin + MSM (initial % in label), 120 hours, listed as 15% MSM) of the same compound?
A: 2.80 Log cfu/ml

Q: What about the “survival (Log cfu/ml)” value ([1]; 6 μg/ml methicillin + MSM (initial % in label), 120 hours, listed as 16% MSM) of the same compound?
A: 2.80 Log cfu/ml

Q: What about the “Log reduction in cfu/ml” value ([1]; 6 μg/ml methicillin + initial 13-16% MSM, 120 hours) of the same compound?
A: ~3.5 log

Q: And the “survival (Log cfu/ml)” value ([1]; 6 μg/ml oxacillin + MSM (initial % in label), 48 Hours, listed as 5% MSM)?
A: 5.20 Log cfu/ml

Q: And the “survival (Log cfu/ml)” value ([1]; 6 μg/ml oxacillin + MSM (initial % in label), 48 Hours, listed as 10% MSM)?
A: 4.20 Log cfu/ml

Q: And the “survival (Log cfu/ml)” value ([1]; 6 μg/ml oxacillin + MSM (initial % in label), 48 Hours, listed as 12% MSM)?
A: 4.30 Log cfu/ml

Q: What about the “survival (Log cfu/ml)” value ([1]; 6 μg/ml oxacillin + MSM (initial % in label), 48 Hours, listed as 13% MSM) of the same compound?
A: 4.20 Log cfu/ml

Q: What about the “survival (Log cfu/ml)” value ([1]; 6 μg/ml oxacillin + MSM (initial % in label), 48 Hours, listed as 14% MSM) of the same compound?
A: 4.40 Log cfu/ml

Q: What about the “survival (Log cfu/ml)” value ([1]; 6 μg/ml oxacillin + MSM (initial % in label), 48 Hours, listed as 15% MSM) of the same compound?
A: 4.40 Log cfu/ml

Q: What about the “survival (Log cfu/ml)” value ([1]; 6 μg/ml oxacillin + MSM (initial % in label), 24 hours, listed as 5% MSM) of the same compound?
A: 4.90 Log cfu/ml

Q: And the “survival (Log cfu/ml)” value ([1]; 6 μg/ml oxacillin + MSM (initial % in label), 24 hours, listed as 8% MSM)?
A: 5.00 Log cfu/ml

Q: And the “survival (Log cfu/ml)” value ([1]; 6 μg/ml oxacillin + MSM (initial % in label), 24 hours, listed as 10% MSM)?
A: 5.00 Log cfu/ml

Q: What about the “survival (Log cfu/ml)” value ([1]; 6 μg/ml oxacillin + MSM (initial % in label), 24 hours, listed as 12% MSM) of the same compound?
A: 5.20 Log cfu/ml

Q: What about the “survival (Log cfu/ml)” value ([1]; 6 μg/ml oxacillin + MSM (initial % in label), 24 hours, listed as 13% MSM) of the same compound?
A: 5.00 Log cfu/ml

Q: What about the “survival (Log cfu/ml)” value ([1]; 6 μg/ml oxacillin + MSM (initial % in label), 24 hours, listed as 14% MSM) of the same compound?
A: 5.20 Log cfu/ml

Q: What about the “survival (Log cfu/ml)” value ([1]; 6 μg/ml oxacillin + MSM (initial % in label), 24 hours, listed as 15% MSM) of the same compound?
A: 5.23 Log cfu/ml

Q: And the “survival (Log cfu/ml)” value ([1]; 6 μg/ml oxacillin + MSM (initial % in label), 24 hours, listed as 16% MSM)?
A: 5.25 Log cfu/ml

Q: What about the “average log reduction in cfu/ml” value [1, 5] of the same compound?
A: 2.7 log

Q: And the “survival (Log cfu/ml)” value [1, 5]?
A: 3.60 Log cfu/ml

Q: What about the “average log reduction in cfu/ml” value [1, 6] of the same compound?
A: 2.1 log

Q: And the “survival (Log cfu/ml)” value [1, 6]?
A: 4.17 Log cfu/ml

Q: What about the “survival (Log cfu/ml)” value ([1]; 6 μg/ml oxacillin + MSM (initial % in label), 120 hours, listed as 5% MSM) of the same compound?
A: TNTC

Q: And the “survival (Log cfu/ml)” value ([1]; 6 μg/ml oxacillin + MSM (initial % in label), 120 hours, listed as 8% MSM)?
A: TNTC

Q: And the “survival (Log cfu/ml)” value ([1]; 6 μg/ml oxacillin + MSM (initial % in label), 120 hours, listed as 10% MSM)?
A: TNTC

Q: And the “survival (Log cfu/ml)” value ([1]; 6 μg/ml oxacillin + MSM (initial % in label), 120 hours, listed as 12% MSM)?
A: TNTC

Q: What about the “survival (Log cfu/ml)” value ([1]; 6 μg/ml oxacillin + MSM (initial % in label), 120 hours, listed as 13% MSM) of the same compound?
A: TNTC

Q: And the “survival (Log cfu/ml)” value ([1]; 6 μg/ml oxacillin + MSM (initial % in label), 120 hours, listed as 14% MSM)?
A: 3.00 Log cfu/ml

Q: What about the “survival (Log cfu/ml)” value ([1]; 6 μg/ml oxacillin + MSM (initial % in label), 120 hours, listed as 15% MSM) of the same compound?
A: 3.00 Log cfu/ml

Q: And the “survival (Log cfu/ml)” value ([1]; 6 μg/ml oxacillin + MSM (initial % in label), 120 hours, listed as 16% MSM)?
A: 3.00 Log cfu/ml

Q: And the “Log reduction in cfu/ml” value ([1]; 6 μg/ml oxacillin + initial 14-16% MSM, 120 hours)?
A: ~3.3 log

Q: What about the “survival (Log cfu/ml)” value ([2]; 12 μg/ml methicillin + MSM (% in label), inoculum log=7.97, listed as 5% MSM) of the same compound?
A: 5.43 Log cfu/ml

Q: What about the “survival (Log cfu/ml)” value ([2]; 12 μg/ml methicillin + MSM (% in label), inoculum log=7.97, listed as 6% MSM) of the same compound?
A: 5.2 Log cfu/ml

Q: And the “survival (Log cfu/ml)” value ([2]; 12 μg/ml methicillin + MSM (% in label), inoculum log=7.97, listed as 7% MSM)?
A: 5.46 Log cfu/ml

Q: And the “survival (Log cfu/ml)” value ([2]; 12 μg/ml methicillin + MSM (% in label), inoculum log=7.97, listed as 8% MSM)?
A: 5.0 Log cfu/ml

Q: What about the “survival (Log cfu/ml)” value ([2]; 12 μg/ml methicillin + MSM (% in label), inoculum log=7.97, listed as 9% MSM) of the same compound?
A: 4.99 Log cfu/ml

Q: What about the “survival (Log cfu/ml)” value ([2]; 12 μg/ml methicillin + MSM (% in label), inoculum log=7.97, listed as 10% MSM) of the same compound?
A: 4.8 Log cfu/ml

Q: What about the “survival (Log cfu/ml)” value ([2]; 12 μg/ml methicillin + MSM (% in label), inoculum log=7.97, listed as 11% MSM) of the same compound?
A: 4.87 Log cfu/ml

Q: What about the “survival (Log cfu/ml)” value ([2]; 12 μg/ml methicillin + MSM (% in label), inoculum log=7.97, listed as 12% MSM) of the same compound?
A: 4.89 Log cfu/ml

Q: And the “survival (Log cfu/ml)” value ([2]; 12 μg/ml methicillin + MSM (% in label), inoculum log=7.97, listed as 13% MSM)?
A: 4.77 Log cfu/ml

Q: What about the “survival (Log cfu/ml)” value ([2]; 12 μg/ml methicillin + MSM (% in label), inoculum log=7.97, listed as 14% MSM) of the same compound?
A: 4.7 Log cfu/ml

Q: And the “survival (Log cfu/ml)” value ([2]; 12 μg/ml oxacillin + MSM (% in label), listed as 5% MSM)?
A: 5.28 Log cfu/ml

Q: And the “survival (Log cfu/ml)” value ([2]; 12 μg/ml oxacillin + MSM (% in label), listed as 6% MSM)?
A: 5.26 Log cfu/ml

Q: What about the “survival (Log cfu/ml)” value ([2]; 12 μg/ml oxacillin + MSM (% in label), listed as 7% MSM) of the same compound?
A: 5.18 Log cfu/ml

Q: What about the “survival (Log cfu/ml)” value ([2]; 12 μg/ml oxacillin + MSM (% in label), listed as 8% MSM) of the same compound?
A: 5.18 Log cfu/ml

Q: What about the “survival (Log cfu/ml)” value ([2]; 12 μg/ml oxacillin + MSM (% in label), listed as 9% MSM) of the same compound?
A: 5.16 Log cfu/ml

Q: What about the “survival (Log cfu/ml)” value ([2]; 12 μg/ml oxacillin + MSM (% in label), listed as 10% MSM) of the same compound?
A: 4.96 Log cfu/ml

Q: What about the “survival (Log cfu/ml)” value ([2]; 12 μg/ml oxacillin + MSM (% in label), listed as 11% MSM) of the same compound?
A: 4.8 Log cfu/ml

Q: What about the “survival (Log cfu/ml)” value ([2]; 12 μg/ml oxacillin + MSM (% in label), listed as 12% MSM) of the same compound?
A: 4.8 Log cfu/ml
